Data as given in ChEMBL document CHEMBL1136451, “Semi-synthetic glycopeptide antibacterials” (Bioorg Med Chem Lett, 2003).
≈ marks a conversion by molar mass, not a printed value.

Assays:
Staphylococcus aureus [1] = assay: Antibacterial activity against Vancomycin resistant staphylococcus aureus (VRSA); format: functional
Staphylococcus aureus [2] = assay: Antibacterial activity against Methicillin resistant staphylococcus aureus (MRSA); format: functional
Enterococcus sp. = assay: Antibacterial activity against Enterococcus species., VanA; format: functional
Streptococcus pneumoniae = assay: Antibacterial activity against Streptococcus pneumoniae; format: functional
Staphylococcus aureus [3] = assay: Inhibitory activity of compound against Staphylococcus aureus ATCC 33591; format: functional, organism-based
Enterococcus faecalis = assay: Inhibitory activity of compound against VanA Enterococcus faecalis MGH-01; format: functional, organism-based
Streptococcus agalactiae = assay: Inhibitory activity of compound against Streptococcus agalactiae KPB-01; format: functional, organism-based
[4] = Cmax (Tissue distribution) of compound was determined at a dose of 5 mg/kg in human; format: ADME, organism-based; set-up: dose 5 mg/kg; conditions: in vivo
[5] = Half life of compound was determined in man with once daily dosing; format: ADME; conditions: human

SMILES	MIC (Staphylococcus aureus [1]) [µg/mL]	MIC90 (Staphylococcus aureus [2]) [µg/mL]	MIC90 (Enterococcus sp.) [µg/mL]	MIC90 (Streptococcus pneumoniae) [ng/mL]	other results
CCCCCCCCCCNCCN[C@@]1(C)C[C@H](O[C@H]2[C@H](Oc3c4cc5cc3Oc3ccc(cc3Cl)[C@@H](O)[C@@](C)(NC(=O)[C@@H](CC(C)C)NC)C(=O)N[C@@H](CC(N)=O)C(=O)N[C@H]5C(=O)N[C@H]3C(=O)N[C@H](C(=O)N[C@H](C(=O)O)c5cc(O)c(CNCP(=O)(O)O)c(O)c5-c5cc3ccc5O)[C@H](O)c3ccc(c(Cl)c3)O4)O[C@H](CO)[C@@H](O)[C@@H]2O)O[C@@H](C)C1O (stereo not given in full) [listing 1 of 2 here]	2 (≈ 1.13 µM)	1 (≈ 0.565 µM)	8 (≈ 4.52 µM)	8 (≈ 0.00452 µM)	–
CCCCCCCCCCNCCN[C@@]1(C)C[C@H](O[C@H]2[C@H](Oc3c4cc5cc3Oc3ccc(cc3Cl)[C@@H](O)[C@@](C)(NC(=O)[C@@H](CC(C)C)NC)C(=O)N[C@@H](CC(N)=O)C(=O)N[C@H]5C(=O)N[C@H]3C(=O)N[C@H](C(=O)N[C@H](C(=O)O)c5cc(O)c(CNCP(=O)(O)O)c(O)c5-c5cc3ccc5O)[C@H](O)c3ccc(c(Cl)c3)O4)O[C@H](CO)[C@@H](O)[C@@H]2O)O[C@@H](C)C1O (stereo not given in full) [listing 2 of 2 here]	–	–	–	–	IC50 (Staphylococcus aureus [3]): 23 µg/mL (≈ 13 µM); IC50 (Enterococcus faecalis): 10 µg/mL (≈ 5.65 µM); IC50 (Streptococcus agalactiae): 15 µg/mL (≈ 8.48 µM)
CCCCCCCCCCNCCN[C@@]1(C)C[C@H](O[C@H]2[C@H](Oc3c4cc5cc3Oc3ccc(cc3Cl)[C@@H](O)[C@]3(C)NC(=O)[C@H](NC(=O)[C@@H]5NC(=O)[C@H](CC(N)=O)NC(=O)[C@](C)(NC(=O)[C@@H](CC(C)C)NC)[C@H](O)c5ccc(c(Cl)c5)O4)c4ccc(O)c(c4)-c4c(O)cc(O)cc4[C@@H](C(=O)O)NC3=O)O[C@H](CO)[C@@H](O)[C@@H]2O)O[C@@H](C)C1O (stereo not given in full)	0.4 (≈ 0.241 µM)	–	–	–	–
CN[C@H]1C(=O)N[C@@H]2Cc3ccc(cc3)Oc3cc4cc(c3O[C@@H]3O[C@H](C(=O)O)[C@@H](O)[C@H](O)[C@H]3NC(=O)CCCCCCCCC(C)C)Oc3ccc(cc3Cl)[C@@H](O)[C@@H]3NC(=O)[C@H](NC(=O)[C@@H]4NC(=O)[C@@H](NC2=O)c2cc(cc(O)c2Cl)Oc2cc1ccc2O)c1ccc(O)c(c1)-c1c(O[C@H]2O[C@H](CO)[C@@H](O)[C@H](O)[C@@H]2O)cc(O)cc1[C@@H](C(=O)NCCCN(C)C)NC3=O [DALBAVANCIN]	–	0.25 (≈ 0.138 µM)	128 (≈ 70.5 µM)	60 (≈ 0.033 µM)	–
CN[C@H](CC(C)C)C(=O)N[C@H]1C(=O)N[C@@H](CC(N)=O)C(=O)N[C@H]2C(=O)N[C@H]3C(=O)N[C@H](C(=O)N[C@H](C(=O)O)c4cc(O)cc(O)c4-c4cc3ccc4O)[C@H](O[C@H]3C[C@](C)(N)[C@@H](O)[C@H](C)O3)c3ccc(c(Cl)c3)Oc3cc2cc(c3O[C@@H]2O[C@H](CO)[C@@H](O)[C@H](O)[C@H]2O[C@H]2C[C@](C)(NCc3ccc(-c4ccc(Cl)cc4)cc3)[C@@H](O)[C@H](C)O2)Oc2ccc(cc2Cl)[C@H]1O [ORITAVANCIN]	0.5 (≈ 0.279 µM)	1 (≈ 0.558 µM)	4 (≈ 2.23 µM)	8 (≈ 0.00446 µM)	–
CN[C@H](CC(C)C)C(=O)N[C@H]1C(=O)N[C@@H](CC(N)=O)C(=O)N[C@H]2C(=O)N[C@H]3C(=O)N[C@H](C(=O)N[C@H](C(=O)O)c4cc(O)cc(O)c4-c4cc3ccc4O)[C@H](O)c3ccc(c(Cl)c3)Oc3cc2cc(c3O[C@@H]2O[C@H](CO)[C@@H](O)[C@H](O)[C@H]2O[C@H]2C[C@](C)(N)[C@H](O)[C@H](C)O2)Oc2ccc(cc2Cl)[C@H]1O [VANCOMYCIN]	–	1 (≈ 0.69 µM)	4 (≈ 2.76 µM)	8 (≈ 0.00552 µM)	–
CCCCCCCCCCNCCN[C@@]1(C)C[C@H](O[C@H]2[C@H](Oc3c4cc5cc3Oc3ccc(cc3Cl)[C@@H](O)[C@@H](NC(=O)[C@@H](CC(C)C)NC)C(=O)N[C@@H](CC(N)=O)C(=O)N[C@H]5C(=O)N[C@H]3C(=O)N[C@H](C(=O)N[C@H](C(=O)O)c5cc(O)c(CNCP(=O)(O)O)c(O)c5-c5cc3ccc5O)[C@H](O)c3ccc(c(Cl)c3)O4)O[C@H](CO)[C@@H](O)[C@@H]2O)O[C@@H](C)[C@H]1O	–	–	–	–	Cmax [4]: 45000 ng/mL; half-life [5]: 420 min
